≈ marks a conversion by molar mass, not a printed value. Calls of active or inactive are those of the source. The calls are words filed in the database; no cut-off is given here.
Legend:
HaCaT [1] = assay: Cytotoxicity against human HaCaT cells assessed as lactate dehydrogenase release at 75 ug/ml after 6 hrs by ELISA; type: functional
HaCaT [2] = assay: Cytotoxicity against human HaCaT cells assessed as lactate dehydrogenase release at 50 ug/ml after 6 hrs by ELISA; type: functional
HaCaT [3] = assay: Cytotoxicity against human HaCaT cells after 24 hrs by MTT assay; type: functional, cell-based
HaCaT [4] = assay: Cytotoxicity against human HaCaT cells assessed as lactate dehydrogenase release at 5 ug/ml after 6 hrs by ELISA; type: functional
HaCaT [5] = assay: Cytotoxicity against human HaCaT cells assessed as lactate dehydrogenase release at 15 ug/ml after 6 hrs by ELISA; type: functional
HaCaT [6] = assay: Cytotoxicity against human HaCaT cells assessed as lactate dehydrogenase release at 20 ug/ml after 6 hrs by ELISA; type: functional
HaCaT [7] = assay: Cytotoxicity against human HaCaT cells assessed as lactate dehydrogenase release at 10 ug/ml after 6 hrs by ELISA; type: functional
HaCaT [8] = assay: Cytotoxicity against human HaCaT cells assessed as lactate dehydrogenase release at 25 ug/ml after 6 hrs by ELISA; type: functional
HaCaT [9] = assay: Cytotoxicity against human HaCaT cells assessed as lactate dehydrogenase release at 100 ug/ml after 6 hrs by ELISA; type: functional
[10] = Cytotoxicity against human Keratinocyte cells assessed as reduction in cell viability at 10 ug/ml after 24 hrs by MTT assay; type: cell-based
HaCaT [11] = assay: Cytotoxicity against human HaCaT cells assessed as reduction in cell viability at 10 ug/ml after 24 hrs by MTT assay; type: functional
[12] = Cytotoxicity against human keratinocytes at 25 ug/ml; type: cell-based; settings: keratinocyte
HaCaT [13] = assay: Cytotoxicity against human HaCaT cells assessed as reduction in cell viability at 5 ug/ml after 24 hrs by MTT assay; type: functional
[14] = Cytotoxicity against human Keratinocyte cells assessed as reduction in cell viability at 5 ug/ml after 24 hrs by MTT assay; type: cell-based
HaCaT [15] = assay: Cell cycle arrest in human HaCaT cells assessed as accumulation at G2/M phase after 24 hrs; type: functional, cell-based

Row | Structure (SMILES) | Activity (HaCaT [1]) [%] | Activity (HaCaT [2]) [%] | Activity (HaCaT [3]) | IC50 (HaCaT [3]) [µg/mL] | Activity (HaCaT [4]) [%] | Activity (HaCaT [5]) [%] | Activity (HaCaT [6]) [%] | Activity (HaCaT [7]) [%] | Activity (HaCaT [8]) [%] | Activity (HaCaT [9]) [%] | Activity [10] [%] | Activity (HaCaT [11]) [%] | Activity [12] | Activity (HaCaT [13]) [%] | Activity [14] [%] | Activity (HaCaT [15])
1 | C=C1C(=O)O[C@H](C2=C(C)[C@@H](O)CC2=O)[C@@H]1CCC(C)=O | 2 | 0 | Dose-dependent effect | 13 (≈ 46.7 µM) | 4 | 0 | 11 | 18 | 11 | – | – | – | – | – | – | –
2 | C=C1C(=O)O[C@H](C2=C(C)C(OC)CC2=O)[C@@H]1[C@@H](O)CC(C)=O (stereo not given in full) | 1 | 2 | Dose-dependent effect | 16.7 (≈ 54.2 µM) | 4 | 4 | 4 | 4 | 5 | 0 | – | – | – | – | – | –
3 | C=C1C(=O)O[C@H](C2=C(C)[C@@H](OC)CC2=O)[C@@H]1CCC(C)=O | 0 | 0 | Dose-dependent effect | 7.1 (≈ 24.3 µM) | 7 | 7 | 5 | 7 | 7 | 0 | > 10 | 66 | Toxic | 44 | > 10 | Active
4 | C=C1C(=O)O[C@H](C2=C(C)C(O)CC2=O)[C@@H]1CCC(C)=O (mixture of isomers) | 0 | 0 | Dose-dependent effect | 19.1 | 2 | 2 | 5 | 3 | 3 | 0 | – | – | – | – | – | –

Reference: ChEMBL document CHEMBL1153773, “Structure-activity relationship of seco-tanapartholides isolated from Achillea falcata for inhibition of HaCaT cell growth” (Eur J Med Chem, 2009)
